# EP0499337A1, “Use of tetra:hydro-thieno-pyrido-indole derivatives for the treatment of skin disorders” (YAMANOUCHI EUROPE B.V., priority 1991, dated 1992)
# Read-outs that look alike come from different tables or passages of the source.
# Key:
# HaCaT cells [1] = tested on: HaCaT cells
# Procedure: HaCaT cells were grown as described.
# Cytotoxicity was assessed by measurements of the content of intracellular lactate dehydrogenase (LDH) activity released into the culture medium during 48 h after onset of drug exposure. Possible drug induced detachment of the HaCaT cells from the plate was assessed by collection of the medium from the wells and centrifugation (80 x g, 10 min.) The resulting pellet was suspended in 10 µl medium and cells were counted in a haemocytometer.
# [2] = tested on: TPA-induced edema and hyperproliferation in mouse skin; experiment: Topical application, TPA-induced edema and hyperproliferation in mouse skin; format: in vivo, Hairless mice (hr/hr; male); conditions: with 0.01 wt% TPA
# Procedure: Hairless mice (hr/hr; male) were treated on their backs with 10 µl of a 0.01 wt% solution of 12-O-tetradecanoylphorbol-13-acetate (TPA) in a 80/20 mixture of acetone/water, further containing the test substances cyclosporin A, sphingosine or tiflucarbine. Per mouse, 4 application sites were used: one application site was treated with only TPA (control) and one with only vehicle (blanco), two with experimental formulations, according to a roulation scheme. 6 mice were treated per experiment. Skin fold thickness was determined before treatment (t=0) and 6 and 24 h after treatment, as a measure of edema. After 72 h the epidermis (15 mm punch biopsy) was separated with 2 M KBr and dissolved in 0.1 M NaOH for determination of the amount of protein, as a measure of hyperproliferation. In one experiment tiflucarbine was compared with cyclosporin A, in a second experiment with sphingosine.
# [3] = tested on: PKC from the central nervous system; experiment: Phosphorylation of synaptosomal plasma membranes: B-50 phosphorylation; format: biochemical; conditions: for phosphorylation of B-50 (% of control): without addition of CaM
# Procedure: Subcellular fractionation and phosphorylation assay were performed according to Kristjansson et al., (1982). […] After a preincubation at 30°C for 5 min, the phosphorylation reaction was started by adding the ATP. The reaction was stopped after 15 sec. All compounds to be tested were present at the start of the preincubation. […]
# HaCaT cells [4] = experiment: Proliferation of HaCaT cells (incorporation of [3H]-thymidine and [14C]-amino acids, total protein content of attached cells); format: cell-based; conditions: Homo sapiens, all parameters measured ([3H]-thymidine, [14C]-amino acids, total protein content), 48 h incubation with compound, read-out: IC₅₀ values, inhibition of proliferation
# Excerpt: HaCaT cells are spontaneously immortalized aneuploid human keratinocytes prepared according to J. Cell. Biol. (1988), 106: 761-771. They can be substituted, however, by SVK₁₄ cells [Taylor-Papadimitriou et al. (1982), J. Cell Differentiat. 11: 169-180] or freshly isolated human keratinocytes [Rheinwald and Green (1975), Cell 6: 331-344].
# The HaCaT cells (or the other cells) were routinely grown in Dulbecco's modified essential medium (DMEM) supplemented with 1% antibiotic-antimycotic solution, 4 mM L-glutamine and 10% fetal calf serum in culture flasks (T 175; Falcon Labware, Oxuard, CA, USA). Proliferation tests were carried out with passages 90-95 (for HaCaT-cells) and passages 3-6 (for NHEK's) in 24 well plates (Greiner, Solingen, FRG) as described below. All incubations were performed at 37°C in a humidified atmosphere with 10% CO₂. […]
# Proliferation of HaCaT cells was assayed by three different parameters: incorporation of [³H]-thymidine, incorporation of [¹⁴C]-amino acids and the increase of protein content of attached cells. […] Thereafter, the filters were treated with 0.5 ml PROTOSOL®-solution (NEN, Bad Homburg, FRG) at 60°C for 1 h and radioactivity was assessed by liquid scintillation counting. […]
# For determination of total protein content, cells were washed twice with methanol. […] Concentration of protein was determined spectrophotometrically using bovine serum albumin as a standard. […]
# HaCaT cells [5] = experiment: Keratinocyte morphology, phase contrast microscopy; format: cell-based, human; conditions: 10 µM, monitored during 72 hours
# Procedure: HaCaT cells were cultured under standard conditions. 24 h after plating (2.5 x 10⁶ cells) the medium was replaced by medium containing the test compounds. During 72 hours cell morphology was frequently monitored using a phase contrast photomicroscope (Olympus IMT-2, Tokyo, Japan).
# SVK₁₄ = experiment: Keratinocyte proliferation, neutral red assay (number of viable attached cells); format: cell-based; conditions: Homo sapiens
# Procedure: (§1) On day 0, 5,000 cells in 100 µl were plated per well in a 96-well cluster plate (Greiner), either in the medium as stated above, or in MCDB153 medium (Clonetics) under low calcium conditions. On day 1 100 µl medium containing increasing concentrations of test agents were added to each well. On day 4, 50 µl of 0.05% neutral red (Gurr) solution in 0.9% NaCl was added per well and the cells were reincubated for 3 h at 37°C. After washing with PBS, the cells were lyzed by addition of 100 µl of 50% ethanol in 0.05 M NaH₂PO₄ per well. After vigorous shaking, the optical extinction was measured at 550 nm. […] Meth., 9: 7). All determinations were performed in octuple. IC₅₀-values (the concentration inhibiting cell numbers by 50%) were determined (µM).
# NHEK = experiment: as above; format: cell-based; conditions: Homo sapiens, Ca²⁺ concentration low (0.06 mM), read-out: keratinocyte proliferation IC₅₀ values
# Procedure: as §1
smiles,measurement,setting,value
"CCN1CCc2[nH]c3cc(F)c4scc(C)c4c3c2C1 [Tiflucarbine, 1-methyl-9-ethyl-4-fluoro-7,8,9,10-tetra:hydro-thieno-[3,2-e]-pyrido-[4,3-b]-indole lactate]",toxic concentration,HaCaT cells [1],above 300 µM
same,edema (skin fold thickness),[2]; 6 and 24 h after treatment,"reduces edema at 0.5, 1 and 2.5%"
same,hyperproliferation (amount of epidermal protein),[2]; after 72 h,reduces hyperproliferation only at 1 and 2.5%
same,B-50 phosphorylation,[3]; in the presence of exogenous CaM (3 units/assay),did not inhibit B-50 phosphorylation
same,phosphorylation of B-50 (% of control),[3]; concentration 1 µM,82 ± 14 % of control
same,phosphorylation of B-50 (% of control),[3]; concentration 10 µM,110 ± 15 % of control
same,phosphorylation of B-50 (% of control),[3]; concentration 100 µM,92 ± 9 % of control
same,phosphorylation of B-50 (% of control),[3]; concentration l mM,95 ± 11 % of control
same,IC50,HaCaT cells [4],10 to 17 µM
same,effect on morphology,HaCaT cells [5],no effect
same,IC50,"SVK₁₄; SVK₁₄, Ca²⁺ concentration normal (1.6 mM), read-out: keratinocyte proliferation IC₅₀ values",12.5 µM
same,IC50,"SVK₁₄; read-out: keratinocyte proliferation IC₅₀ values, SVK₁₄, Ca²⁺ concentration low (0.06 mM)",7.5 µM
same,IC50,NHEK,10 µM
